Assay results from the RepoRT retention time repository (doi:10.1021/es4044374).

Test: RP, Waters XBridge C18, 50 × 2.1 mm, 3.5 µm, 30 °C, 0.2 mL/min, estimated dead time 0.55 min; A: water + 0.1% formic acid, pH 3; B: methanol + 0.1% formic acid, pH 3; gradient (min/%B) 0/10 4/50 17/95 25/95 25.1/10 30/10
Conditions: stereoisomer not certain
`CCc1cccc(CC)c1N(COC)C(=O)CCl` [Alachlor] showed an LC retention time of 11.7 min.
Work on `COC(=O)N(OC)c1ccccc1COc1ccn(-c2ccc(Cl)cc2)n1` [Pyraclostrobin] yielded an LC retention time of 13.4 min.
For `c1ccc(CN2CCNCC2)cc1` [1-Benzylpiperazine], the LC retention time was 1.2 min.
`CCC(C)n1c(=O)[nH]c(C)c(Br)c1=O` (stereo not drawn) [Bromacil] showed an LC retention time of 7 min.
For `N#Cc1cc(Br)c(O)c(Br)c1` [Bromoxynil], the LC retention time was 8.3 min.
Work on `Nc1cnn(-c2ccccc2)c(=O)c1Cl` [Chloridazon] yielded an LC retention time of 5.2 min.
In the case of `CCCc1nc2c(C)cc(-c3nc4ccccc4n3C)cc2n1Cc1ccc(-c2ccccc2C(=O)O)cc1` [Telmisartan], the LC retention time is reported as 9.2 min.
For `CCC(C)c1cc([N+](=O)[O-])cc([N+](=O)[O-])c1O` (stereo not drawn) [Dinoseb], the LC retention time was 13 min.
Work on `CCNc1nc(NCC)[nH]c(=O)n1` [Simazine-2-hydroxy] yielded an LC retention time of 3.5 min.
`CC(CN(C)C)CN1c2ccccc2CCc2ccccc21` (stereo not drawn) [Trimipramine] showed an LC retention time of 8.7 min.
`CNC(=C[N+](=O)[O-])NCCSCc1ccc(C[N+](C)(C)[O-])o1` [Ranitidine N-oxide] showed an LC retention time of 2.4 min.
`CCC(C)(C)C(=O)OC1CC(C)C=C2C=CC(C)C(CCC3CC(O)CC(=O)O3)C21` (stereo not drawn) [Simvastatin] gave an LC retention time of 16 min.
With `CC(C)NCC(O)COc1ccc(CC(=O)O)cc1` (stereo not drawn) [Atenolol acid] the LC retention time was 3.8 min.
`CC1CC2C(C(O)CC3(C)C2CCC3(O)C(=O)CO)C2(C)C=CC(=O)C=C12` (stereo not drawn) [Methylprednisolone] showed an LC retention time of 9.2 min.
In the case of `CNC(C)C(O)c1ccccc1` (stereo not drawn) [Ephedrine], the LC retention time is reported as 2.9 min.
In the case of `CSc1nc(NC(C)C)nc(NC(C)C)n1` [Prometryn], the LC retention time is reported as 8.5 min.
With `CC(=O)OC1C(C)OC(n2cc(F)c(N)nc2=O)C1OC(C)=O` (stereo not drawn) [2',3'-di-O-acetyl-5'-deoxy-5-fluorocytidine] the LC retention time was 5.2 min.
For `NS(=O)(=O)c1cc(C(=O)O)c(NCc2ccco2)cc1Cl` [Furosemide], the LC retention time was 6.8 min.
`Cn1c(=O)c2c(ncn2C)n(C)c1=O` [Caffeine] showed an LC retention time of 4 min.
`O=C1NS(=O)(=O)c2ccccc21` [Saccharin] showed an LC retention time of 2.5 min.
In the case of `CNC(=O)Oc1cc(C)c(SC)c(C)c1` [Methiocarb], the LC retention time is reported as 10.4 min.
With `CC(C)N(C(=O)CS(=O)(=O)O)c1ccccc1` [Propachlor ESA] the LC retention time was 5.9 min.
With `Cc1nc(N(C)C)nc(OC(=O)N(C)C)c1C` [Pirimicarb] the LC retention time was 5 min.
`CNC(=C[N+](=O)[O-])NCCS(=O)Cc1ccc(CN(C)C)o1` (stereo not drawn) [Ranitidine-S-oxide] gave an LC retention time of 0.8 min.
In the case of `CC(C)Nc1nc(N)nc(Cl)n1` [Atrazine-desethyl], the LC retention time is reported as 5.6 min.
Work on `CCOCN(C(=O)C(=O)O)c1c(C)cccc1CC` [Acetochlor OXA] yielded an LC retention time of 7.5 min.
With `CCC1OC(=O)C(C)C(OC2CC(C)(OC)C(O)C(C)O2)C(C)C(OC2OC(C)CC(N(C)C)C2O)C(C)(O)CC(C)C(=O)C(C)C(O)C1(C)O` (stereo not drawn) [Erythromycin] the LC retention time was 8.5 min.
Molecule `N#Cc1nn(-c2c(Cl)cc(C(F)(F)F)cc2Cl)c(N)c1C(F)(F)F` [Fipronil-desulfinyl] has an LC retention time of 12.5 min.
Work on `CN(CC(O)CO)C(=O)c1c(I)c(NC(=O)C(CO)CO)c(I)c(C(=O)N(C)CC(O)CO)c1I` (stereo not drawn) [Iobitridol] yielded an LC retention time of 1.6 min.
Molecule `O=P1(NCCCl)OCCCN1CCCl` (stereo not drawn) [Ifosfamide] has an LC retention time of 6.3 min.
Work on `CC(C(=O)O)c1cccc(C(=O)c2ccccc2)c1` (stereo not drawn) [Ketoprofen] yielded an LC retention time of 9.6 min.
`COC(=O)c1ccccc1S(N)(=O)=O` [2-Aminosulfonyl-benzoic acid methyl ester] showed an LC retention time of 4.5 min.
For `COCC(=O)Nc1c(I)c(C(=O)NCC(O)CO)c(I)c(C(=O)N(C)CC(O)CO)c1I` (stereo not drawn) [Iopromide], the LC retention time was 2.7 min.
With `CC(C)c1ccc(NC(N)=O)cc1` [Isoproturon-didemethyl] the LC retention time was 8 min.
`CCCN(CCC)c1c([N+](=O)[O-])cc(C(F)(F)F)cc1[N+](=O)[O-]` [Trifluralin] gave an LC retention time of 16.5 min.
Work on `C=C1CC2C(CCC3(C)C(=O)CCC23)C2(C)C=CC(=O)C=C12` (stereo not drawn) [Exemestane] yielded an LC retention time of 10.1 min.
`CN1CCN(C2=Nc3cc(Cl)ccc3Nc3ccccc32)CC1` [Clozapine] gave an LC retention time of 6.4 min.
With `CN(C)CCC=C1c2ccccc2CCc2ccccc21` [Amitriptyline] the LC retention time was 8.6 min.
`Cc1cc(C)nc(Nc2ccccc2)n1` [Pyrimethanil] gave an LC retention time of 7.6 min.
In the case of `CCOCN(C(=O)CCl)c1c(C)cccc1CC` [Acetochlor], the LC retention time is reported as 11.7 min.
With `CC(=O)N(CC(O)CO)c1c(I)c(C(=O)NCC(O)CO)c(I)c(C(=O)NCC(O)CO)c1I` (stereo not drawn) [Iohexol] the LC retention time was 1.6 min.
With `CSc1nc(NC2CC2)nc(NC(C)(C)C)n1` [Irgarol] the LC retention time was 9.2 min.
With `O=c1ccn(C2OC(CO)C(O)C2(F)F)c(=O)[nH]1` (stereo not drawn) [2',2'-Difluoro-2'-deoxyuridine] the LC retention time was 1.7 min.
`Cc1cc(=O)[nH]c(C(C)C)n1` [Pyrimidinol] showed an LC retention time of 3.4 min.
For `CCNc1nc(NC(C)C)[nH]c(=O)n1` [Atrazine-2-hydroxy], the LC retention time was 4.4 min.
Work on `Nc1nnc(-c2cccc(Cl)c2Cl)c(N)n1` [Lamotrigine] yielded an LC retention time of 5.4 min.
In the case of `CCNc1nc(Cl)nc(NC(C)CC)n1` (stereo not drawn) [Sebuthylazine], the LC retention time is reported as 9.8 min.
In the case of `Nc1ccn(C2OC(CO)C(O)C2(F)F)c(=O)n1` (stereo not drawn) [Gemcitabine], the LC retention time is reported as 1 min.
In the case of `NCC1(CC(=O)O)CCCCC1` [Gabapentin], the LC retention time is reported as 3.6 min.
For `CC(C)(C)C(=O)C(Oc1ccc(Cl)cc1)n1ccnc1` (stereo not drawn) [Climbazol], the LC retention time was 8.1 min.
With `CCOC(=O)Nc1cccc(OC(=O)Nc2ccccc2)c1` [Desmedipham] the LC retention time was 9.2 min.
For `O=c1[nH]c2c(c(=O)n1C1CCCCC1)CCC2` [Lenacil], the LC retention time was 8.6 min.
`CCN(CC)CCNC(=O)c1cc(Cl)c(N)cc1OC` [Metoclopramide] gave an LC retention time of 4.3 min.
In the case of `CC(C)N(C(=O)CCl)c1ccccc1` [Propachlor], the LC retention time is reported as 8.6 min.
With `Nc1ccc(S(=O)(=O)Nc2nccs2)cc1` [Sulfathiazole] the LC retention time was 2.8 min.
Work on `COc1ccc(C(CN)C2(O)CCCCC2)cc1` (stereo not drawn) [N,N-Didesmethylvenlafaxine] yielded an LC retention time of 6.3 min.
Work on `CCNc1nc(NC(C)(C)C)nc(OC)n1` [Terbumeton] yielded an LC retention time of 6.7 min.
`CCCCC1=NC2(CCCC2)C(=O)N1Cc1ccc(-c2ccccc2-c2nn[nH]n2)cc1` [Irbesartan] showed an LC retention time of 9.2 min.
Work on `CC(=O)Nc1ccc(S(=O)(=O)Nc2nc(C)cc(C)n2)cc1` [N4-Acetylsulfamethazine] yielded an LC retention time of 4.5 min.
In the case of `CN(C(=O)CO)c1c(I)c(C(=O)NCC(O)CO)c(I)c(C(=O)NCC(O)CO)c1I` (stereo not drawn) [Iomeprol], the LC retention time is reported as 1.6 min.
`c1ccc2scnc2c1` [Benzothiazole] showed an LC retention time of 6.6 min.
Molecule `COc1ccc(C(=O)c2ccccc2)c(O)c1` [Benzophenone-3] has an LC retention time of 12.1 min.
With `Cc1cc(Cl)ccc1OC(C)C(=O)O` (stereo not drawn) [Mecoprop] the LC retention time was 10.8 min.
In the case of `CC(=O)Nc1ccc(S(=O)(=O)Nc2ncccn2)cc1` [N4-Acetylsulfadiazine], the LC retention time is reported as 3.6 min.
Work on `CCCN(CC)CC1COC2(CCC(C(C)(C)C)CC2)O1` (stereo not drawn) [Spiroxamine] yielded an LC retention time of 10.1 min.
In the case of `CCCCCCCCCC[N+](C)(C)[O-]` [DDAO], the LC retention time is reported as 10.4 min.
Work on `COc1c(C)c2c(c(O)c1CC=C(C)CCC(=O)O)C(=O)OC2` [Mycophenolic acid] yielded an LC retention time of 9.9 min.
For `CCCOC(=O)NCCCN(C)C` [Propamocarb], the LC retention time was 2.4 min.
For `O=C(O)C(F)(F)C(F)(F)C(F)(F)C(F)(F)C(F)(F)C(F)(F)C(F)(F)F` [Perfluorooctanoic acid], the LC retention time was 12.6 min.
Molecule `CCS(=O)(=O)c1cccnc1S(=O)(=O)NC(=O)Nc1nc(OC)cc(OC)n1` [Rimsulfuron] has an LC retention time of 7.9 min.
With `CN(CC(=O)O)S(=O)(=O)C(F)(F)C(F)(F)C(F)(F)C(F)(F)C(F)(F)C(F)(F)C(F)(F)C(F)(F)F` [N-methylperfluorooctane sulfonamidoacetic acid] the LC retention time was 16.5 min.
`NC(=O)N1c2ccccc2C=Cc2ccccc21` [Carbamazepine] gave an LC retention time of 7.8 min.
Molecule `CCC1OC(=O)C(C)C(OC2CC(C)(OC)C(O)C(C)O2)C(C)C(OC2OC(C)CC(N(C)C)C2O)C(C)(O)CC(C)C(=NOCOCCOC)C(C)C(O)C1(C)O` (stereo not drawn) [Roxithromycin] has an LC retention time of 10.1 min.
`CCN(CC)C(=O)C(C)Oc1cccc2ccccc12` (stereo not drawn) [Napropamid] showed an LC retention time of 11.7 min.
For `CC(C)N(C(=O)C(=O)O)c1ccccc1` [Propachlor OXA], the LC retention time was 5.6 min.
In the case of `CN1COCN(Cc2cnc(Cl)s2)C1=N[N+](=O)[O-]` [Thiamethoxam], the LC retention time is reported as 4.1 min.
Work on `O=c1[nH]cc(F)c(=O)[nH]1` [5-Fluorouracil] yielded an LC retention time of 1 min.
With `O=C(O)c1cc(Br)c(O)c(Br)c1` [3,5-Dibromo-4-hydroxybenzoic acid] the LC retention time was 7.3 min.
With `CC(=O)Nc1ccc(S(=O)(=O)Nc2cc(C)on2)cc1` [N4-Acetylsulfamethoxazole] the LC retention time was 5.5 min.
Work on `O=C(O)c1cn(C2CC2)c2cc(N3CCNCC3)c(F)cc2c1=O` [Ciprofloxacin] yielded an LC retention time of 4.5 min.
`COc1cc(NS(=O)(=O)c2ccc(N)cc2)nc(OC)n1` [Sulfadimethoxine] showed an LC retention time of 5.7 min.
In the case of `COc1ccc2c3c1OC1C(O)C=CC4C(C2)N(C)CCC341` (stereo not drawn) [Codeine], the LC retention time is reported as 2.8 min.
With `CCNc1nc(NCC)nc(OC)n1` [Simeton] the LC retention time was 4.9 min.
Work on `CC(C)c1ccc(N)cc1` [4-Isopropylaniline] yielded an LC retention time of 5.2 min.
`OC(Cn1cncn1)(Cn1cncn1)c1ccc(F)cc1F` [Fluconazole] showed an LC retention time of 5.3 min.
`CC(C)(c1ccc(O)cc1)c1ccc(O)cc1` [Bisphenol A] showed an LC retention time of 14 min.
With `CCc1cc(C)cc(CC)c1-c1c(OC(=O)C(C)(C)C)n2n(c1=O)CCOCC2` [Pinoxaden] the LC retention time was 13.7 min.
In the case of `O=C(O)C(F)(F)C(F)(F)C(F)(F)F` [Perfluorobutyric acid], the LC retention time is reported as 5.1 min.
